For this experiment, the target named is T1, Programmed cell death protein 4 (Homo sapiens, UniProt Q53EL6).
T1 sequence (Q53EL6 whole entry): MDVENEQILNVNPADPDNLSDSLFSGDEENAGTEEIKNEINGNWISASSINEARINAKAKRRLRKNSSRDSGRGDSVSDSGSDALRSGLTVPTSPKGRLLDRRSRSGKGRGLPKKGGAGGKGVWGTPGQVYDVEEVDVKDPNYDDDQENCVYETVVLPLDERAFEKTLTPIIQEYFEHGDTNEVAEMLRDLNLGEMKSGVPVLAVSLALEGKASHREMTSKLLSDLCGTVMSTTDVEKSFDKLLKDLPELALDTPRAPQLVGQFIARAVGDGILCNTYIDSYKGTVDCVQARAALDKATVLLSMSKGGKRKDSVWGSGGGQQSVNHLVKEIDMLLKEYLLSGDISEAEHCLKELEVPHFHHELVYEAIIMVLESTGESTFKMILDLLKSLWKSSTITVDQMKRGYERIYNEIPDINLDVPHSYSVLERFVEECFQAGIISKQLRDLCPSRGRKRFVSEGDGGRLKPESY
Put plainly: Inhibition of PDCD4 in human HeLa cells tranfected with pCI-neo-luciferase-PDCD4 3'-UTR plasmid assessed as increase in luciferase activity by luciferase reporter assay. For orientation: A reporter such as luciferase makes a cellular process visible.

SMILES strings stand for the structures.

Broadly, the EC50 is the midpoint of the concentration-response curve.

As to `CCOC(=O)c1nc(-c2ccc(OC)cc2)oc1C`, the EC50 is 2250 nM.

(Values after BindingDB's records for PubMed 35695407 (Chinese Academy of Sciences, 2022).)
